Experimental data taken from BindingDB's records for doi:10.1021/jm960626t (Dupont Pharmaceuticals, 1997).
pIC50: −log10 of the molar value. Structures can show the parent of a compound that is named as a salt.

Target: Integrin alpha-IIb/beta-3 (Homo sapiens, UniProt P08514+P05106)
Test: Inhibition of human platelet aggregation induced by ADP

Chain of Integrin alpha-IIb/beta-3 (P05106 27-788 limits assumed): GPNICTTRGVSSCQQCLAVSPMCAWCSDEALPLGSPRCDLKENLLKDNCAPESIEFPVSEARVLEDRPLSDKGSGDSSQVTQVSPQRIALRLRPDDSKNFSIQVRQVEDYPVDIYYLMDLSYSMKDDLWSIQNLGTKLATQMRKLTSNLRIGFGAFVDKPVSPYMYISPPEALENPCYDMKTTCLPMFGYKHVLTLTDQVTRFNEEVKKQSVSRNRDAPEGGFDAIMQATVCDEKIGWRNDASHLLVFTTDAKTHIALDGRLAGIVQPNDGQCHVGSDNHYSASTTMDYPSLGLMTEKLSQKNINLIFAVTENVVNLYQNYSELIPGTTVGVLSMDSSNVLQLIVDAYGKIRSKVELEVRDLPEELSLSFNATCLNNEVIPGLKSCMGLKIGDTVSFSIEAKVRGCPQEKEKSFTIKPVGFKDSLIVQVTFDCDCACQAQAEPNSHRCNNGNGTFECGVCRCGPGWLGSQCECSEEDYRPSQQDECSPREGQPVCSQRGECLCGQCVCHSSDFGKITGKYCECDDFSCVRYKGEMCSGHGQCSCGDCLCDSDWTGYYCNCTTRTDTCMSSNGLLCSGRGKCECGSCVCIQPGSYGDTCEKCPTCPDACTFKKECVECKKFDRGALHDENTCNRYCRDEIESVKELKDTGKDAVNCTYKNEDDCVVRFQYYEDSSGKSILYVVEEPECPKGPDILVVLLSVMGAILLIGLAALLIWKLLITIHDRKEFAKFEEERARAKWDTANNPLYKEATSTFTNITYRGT
Chain of Integrin alpha-IIb/beta-3 (P08514 32-887 limits assumed): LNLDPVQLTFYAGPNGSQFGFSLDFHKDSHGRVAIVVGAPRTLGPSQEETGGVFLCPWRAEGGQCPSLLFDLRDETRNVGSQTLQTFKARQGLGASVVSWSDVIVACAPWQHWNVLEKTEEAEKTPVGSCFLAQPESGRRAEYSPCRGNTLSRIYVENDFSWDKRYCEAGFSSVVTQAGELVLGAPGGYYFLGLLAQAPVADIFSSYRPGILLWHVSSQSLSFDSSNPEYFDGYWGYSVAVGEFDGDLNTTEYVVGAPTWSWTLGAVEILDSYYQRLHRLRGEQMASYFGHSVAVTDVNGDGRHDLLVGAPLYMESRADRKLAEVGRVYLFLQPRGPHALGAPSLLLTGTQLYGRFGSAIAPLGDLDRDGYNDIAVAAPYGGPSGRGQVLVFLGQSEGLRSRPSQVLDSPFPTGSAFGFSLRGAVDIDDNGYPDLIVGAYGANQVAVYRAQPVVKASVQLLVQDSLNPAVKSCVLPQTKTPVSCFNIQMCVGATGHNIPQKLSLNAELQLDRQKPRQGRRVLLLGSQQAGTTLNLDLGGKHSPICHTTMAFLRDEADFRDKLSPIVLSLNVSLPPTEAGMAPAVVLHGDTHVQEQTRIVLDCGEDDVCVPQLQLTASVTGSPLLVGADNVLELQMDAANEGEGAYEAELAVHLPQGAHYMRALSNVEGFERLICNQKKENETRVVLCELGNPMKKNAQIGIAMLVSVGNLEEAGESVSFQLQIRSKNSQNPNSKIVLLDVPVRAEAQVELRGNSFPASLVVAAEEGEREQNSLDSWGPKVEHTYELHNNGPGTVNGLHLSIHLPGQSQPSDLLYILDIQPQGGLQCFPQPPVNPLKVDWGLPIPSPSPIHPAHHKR
Chain of Integrin alpha-IIb/beta-3 (P08514 891-1039 limits assumed): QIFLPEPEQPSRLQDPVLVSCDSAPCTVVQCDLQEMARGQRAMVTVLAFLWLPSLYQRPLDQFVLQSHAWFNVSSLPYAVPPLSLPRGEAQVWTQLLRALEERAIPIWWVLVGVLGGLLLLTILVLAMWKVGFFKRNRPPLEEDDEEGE

| pIC50 | SMILES |
| --- | --- |
| 4.64 | O=C(NC(C(=O)O)C1CC(c2ccc(OCCC3CCNCC3)cc2)=NO1)OCc1ccccc1 (configuration not stated) [Benzyloxycarbonylamino-{3-[4-(2-piperidin-4-yl-ethoxy)-phenyl]-4,5-dihydro-isoxazol-5-yl}-acetic acid] |
| 5.08 | O=C(O)CC1CC(c2ccc(OCCC3CCNCC3)cc2)=NO1 (configuration not stated) [{3-[4-(2-Piperidin-4-yl-ethoxy)-phenyl]-4,5-dihydro-isoxazol-5-yl}-acetic acid] |
| 6.07 | N=C(N)c1ccc(C2=NO[C@@H](CC(=O)NCCC(=O)O)C2)cc1 |
| < 4.00 | O=C(O)CCNC(=O)CC1CC(CC2CCNCC2)=NO1 (configuration not stated) [3-[2-(3-Piperidin-4-ylmethyl-4,5-dihydro-isoxazol-5-yl)-acetylamino]-propionic acid] |
| 4.74 | O=C(O)CCC1CC(c2ccc(OCC3CCNCC3)cc2)=NO1 (configuration not stated) [3-{3-[4-(Piperidin-4-ylmethoxy)-phenyl]-4,5-dihydro-isoxazol-5-yl}-propionic acid] |
| 6.20 | O=C(O)CCNC(=O)CC1CC(CCC2CCNCC2)=NO1 (configuration not stated) [3-{2-[3-(2-Piperidin-4-yl-ethyl)-4,5-dihydro-isoxazol-5-yl]-acetylamino}-propionic acid] |
| 7.22 | N=C(N)c1ccc(C2=NO[C@H](CC(=O)NCCC(=O)O)C2)cc1 [3-{2-[(S)-3-(4-Carbamimidoyl-phenyl)-4,5-dihydro-isoxazol-5-yl]-acetylamino}-propionic acid; TFA] |
